Test results taken from patent US20220411880A1, “METHODS AND COMPOSITIONS FOR DIAGNOSING AND TREATING CHRONIC MYELOMONOCYTIC LEUKEMIA (CMML)” (INSERM (INSTITUT NATIONAL DE LA SANTÉET DE LA RECHERCHE …, priority 2019, published 2022).

Tests used:
[1] = tested on: ABCA1 mutant-transduced Tet2 deficient BM cells; assay: [3H]-thymidine proliferation assay in ex vivo BM liquid culture; assay type: cell-based, mouse; conditions: FIG. 5E
Source text: FIG. 5. Cholesterol accumulation couples ABCA1 invalidation and Tet2 deficiency to IL-3 receptor β signaling hypersensitivity. (A-D) Quantification of BODIPY staining by flow cytometry expressed as mean fluorescence intensity (MFI) as a surrogate of cellular cholesterol neutral lipid per cell in BM hematopoietic stem (A and C) and progenitor (B and D) cells (i.e, LSKs, MEPs, CMPs and GMPs) of recipient mice transplanted with Mx1-Cre^+, Mx1-Cre^+ Abca1^fl/fl, MX1-Cre^+Tet2^fl/fl and Mx1-Cre^+Tet2^fl/flAbca1^fl/fl BM (A and B) or control and Mx1-Cre^+Tet2^fl/fl BM expressing empty, ABCA1-WT or ABCA1 mutants (C and D). (E) Expression of mRNA was normalized to m36B4. mRNA levels were expressed as percentage over WT whole BM cells. Proliferation rates were determined after 2 h [^3H]-thymidine pulse labeling in BM cells from empty, ABCA1-WT and ABCA1 mutants-transduced animals on a Tet2 deficient background that were grown for 72 h in liquid culture in the presence or absence of 6 ng/mL IL-3 and 2 ng/mL GM-CSF and the indicated chemical compounds.
FIG. 6. […] (A) Proliferation rates were determined after 2 h [^3H]-thymidine pulse labeling in BM cells from empty, ABCA1-WT and ABCA1 mutants-transduced animals on a Tet2 deficient background that were grown for 72 h in liquid culture in the presence or absence of 50 μg/mL PEG-HDL. […]

[2] = tested on: ABCA1 mutant-transduced Tet2 deficient BM cells; assay: cell viability of treated ex vivo BM cultures; assay type: cell-based, mouse; conditions: same treated BM cultures; data not shown
Description: Briefly, femurs were flushed with ice-cold PBS and centrifugated for 5 min at 1,000 rpm to extract BM cells. After red blood cell lysis, over 90% of BM cells were CD45-positive cells of hematopoietic origin (Westerterp et al., 2012). Primary BM cells were resuspended in IMDM (Gibco) containing 10% FCS (STEMCELL Technologies) and cultured for 1 h in tissue culture flasks to remove adherent cells, including macrophages. The transduction rate of control, ABCA1-WT and ABCA 1-mutant lentiviral particles was determined after BM transplantation as described above. Suspended cells were then normalized to the same concentration and cultured for 72 h in the presence of 6 ng/mL IL-3 and 2 ng/mL GM-CSF (R&D Systems). In some experiments, the cyclodextrin (Sigma) was used at the final concentration of 5 mM, tempol (EMD Millipore) at 4 mM and anti-IL3Rbeta AF549 antibody (R&D Systems) at 50 μg/mL.

Q: Which “proliferation of ABCA1 mutant-transduced Tet2 deficient BM cells” value ([1]; 72 h culture in presence or absence of IL-3 and GM-CSF, cyclodextrin 5 mM, antibody 50 μg/mL, effect similar to ABCA1-WT overexpression) does the source give for cyclodextrin here?
A: The value was “prevented the proliferation”.

Q: And the cell viability [2]?
A: Its cell viability is “without affecting cell viability”.

Q: `CC1(C)CC(O)CC(C)(C)N1[O]` [tempol] was tested. Which “basal proliferation and IL-3/GM-CSF hypersensitivity of ABCA1 mutants-transduced Tet2 deficient BM cells” value ([1]; tempol 4 mM, 72 h culture with or without 6 ng/mL IL-3 and 2 ng/mL GM-CSF) did it give?
A: The value was “prevented the basal proliferation and IL-3/GM-CSF hypersensitivity”.
